How the values were obtained:
[1] = biological target: T1, human platelet PDE3 (Homo sapiens, UniProt Q14432); experiment: hPDE3 assay ([3H]cAMP scintillation proximity assay); assay type: biochemical; conditions: human platelet PDE3, [3H]cAMP SPA, 30 min at room temperature
T1 construct: Human platelet PDE3 (partially purified from human platelets); from tissue; host or cells: human platelets

[2] = biological target: c-MET receptor tyrosine kinase, GST-c-MET(969-1390) (Homo sapiens, UniProt P08581); experiment: EPK c-MET profiling assay (LanthaScreen TR-FRET kinase assay); assay type: biochemical; conditions: 2 μM ATP, 0.3 nM enzyme, 60 minutes at room temperature; end point measurement, repeats can be about two times higher or lower; read-out: c-Met Biochem IC50
c-MET receptor tyrosine kinase, GST-c-MET(969-1390), sequence (P08581 969-1390): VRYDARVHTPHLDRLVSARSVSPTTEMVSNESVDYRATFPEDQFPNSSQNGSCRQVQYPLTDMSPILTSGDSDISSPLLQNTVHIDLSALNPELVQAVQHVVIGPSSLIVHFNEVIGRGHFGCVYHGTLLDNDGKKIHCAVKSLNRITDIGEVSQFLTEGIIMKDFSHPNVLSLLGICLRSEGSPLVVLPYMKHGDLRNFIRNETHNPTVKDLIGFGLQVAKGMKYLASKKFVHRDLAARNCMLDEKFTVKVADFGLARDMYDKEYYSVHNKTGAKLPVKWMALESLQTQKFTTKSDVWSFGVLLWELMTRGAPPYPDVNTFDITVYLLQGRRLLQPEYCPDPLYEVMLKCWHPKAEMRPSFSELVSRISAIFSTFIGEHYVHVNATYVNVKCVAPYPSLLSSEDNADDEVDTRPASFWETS
Experimental: The exemplified compounds of the present invention were assayed in an antibody based kinase phosphorylation assay as follows.
EPK c-MET Profiling Assay:
The EPK kinase assay for c-MET receptor tyrosine kinase was developed, using the purified recombinant GST-fusion protein, containing the cytoplasmic domain of the enzyme. GST-c-MET(969-1390) was purified by affinity chromatography.
The kinase assay is based on the LanthaScreen™ technology. LanthaScreen™ is the detection of Time-Resolved Fluorescence Resonance Energy Transfer (TR-FRET) using lanthanide chelates to measure interactions between various binding partners. In a TR-FRET kinase assay, a long-lifetime lanthanide donor species is conjugated to an antibody that specifically binds to a phosphorylated product of a kinase reaction that is labeled with a suitable acceptor fluorophore. This antibody-mediated interaction brings the lanthanide donor and the acceptor into proximity such that resonance energy transfer can take place, resulting in a detectable increase in the FRET signal.
The kinase reactions were performed in 384 well microtiter plates in a total reaction volume of 10.05 μL. The assay plates were prepared with 0.05 μL per well of test compound in the appropriate test concentration, as described under “preparation of compound dilutions”. The reactions were started by combining 5 μL of ATP solution with 5 μL of enzyme-substrate mix (consisting of kinase and substrate). The final concentrations in the kinase reactions were 25 mM Tris/HCl, 1 mM DTT, 0.025% Tween20, 10 μM sodium orthovanadate, 0.25% BSA, 0.5% DMSO, 10 mM MgCl2, 3 mM MnCl2, 2 μM ATP, 50 nM Fluorescein-PolyEAY, and 0.3 nM enzyme. The reactions were incubated for 60 minutes at room temperature and stopped by adding 5 μL of stop buffer (50 mM EDTA, 0.04% NP40, 20 mM Tris/HCl). Subsequently 5 μL of detection mix (50 mM Tris/HCl, 2 mM DTT, 0.05% Tween20, 20 μM sodium orthovanadate, 1% BSA, 1 nM Tb-PY20 antibody) were added to the stopped reactions. After 45 minutes incubation in dark at room temperature, the plates were measured in a Perkinelmer Envision fluorescence reader. The effect of compound on the enzymatic activity was in all assays obtained from the linear progress curves and normally determined from one reading (end point measurement).
These endpoint results should therefore only be seen as an indicator for the activity range, since repeated measurements can result in about two times higher or lower values.

[3] = system: GTL16 cells; experiment: GTL16 cell viability assay (CellTiter Glo); assay type: cell-based; conditions: Homo sapiens, GTL 16, GTL16 gastric cancer cells, 24 hours, triplicates, read-out: GTL-16 Proliferation IC50
Experimental: GTL16 cell line is derived from a gastric cancer patient. GTL16 expresses high level of c-Met receptor tyrosine kinase due to the gene amplification.
GTL16 cells were seeded in DMEM medium with 10% FBS and 1% Pene. & Strep. at 5000 cells/well/90 μL in 96 well plate and incubated overnight for attachment at 37° C. in 5% CO2 incubator. 10-fold serials dilutions of compounds were added to the cell as 10 μL/well. The final assay volume was 100 μl/well. The assay plates were incubated at 37° C. in 5% CO2 incubator for 24 hours. […] Briefly, the plates were cooled at room temperature for 10 mins and 100 μl of CellTiter Glo reagent was added into each well. Plates were shaken for 10 mins. The chemiluminescent light unit was read in Envision from Perkin Elmer. All the tests were run at triplicates. The IC50 was calculated using Spotfire software.

T1 sequence (Q14432 whole entry): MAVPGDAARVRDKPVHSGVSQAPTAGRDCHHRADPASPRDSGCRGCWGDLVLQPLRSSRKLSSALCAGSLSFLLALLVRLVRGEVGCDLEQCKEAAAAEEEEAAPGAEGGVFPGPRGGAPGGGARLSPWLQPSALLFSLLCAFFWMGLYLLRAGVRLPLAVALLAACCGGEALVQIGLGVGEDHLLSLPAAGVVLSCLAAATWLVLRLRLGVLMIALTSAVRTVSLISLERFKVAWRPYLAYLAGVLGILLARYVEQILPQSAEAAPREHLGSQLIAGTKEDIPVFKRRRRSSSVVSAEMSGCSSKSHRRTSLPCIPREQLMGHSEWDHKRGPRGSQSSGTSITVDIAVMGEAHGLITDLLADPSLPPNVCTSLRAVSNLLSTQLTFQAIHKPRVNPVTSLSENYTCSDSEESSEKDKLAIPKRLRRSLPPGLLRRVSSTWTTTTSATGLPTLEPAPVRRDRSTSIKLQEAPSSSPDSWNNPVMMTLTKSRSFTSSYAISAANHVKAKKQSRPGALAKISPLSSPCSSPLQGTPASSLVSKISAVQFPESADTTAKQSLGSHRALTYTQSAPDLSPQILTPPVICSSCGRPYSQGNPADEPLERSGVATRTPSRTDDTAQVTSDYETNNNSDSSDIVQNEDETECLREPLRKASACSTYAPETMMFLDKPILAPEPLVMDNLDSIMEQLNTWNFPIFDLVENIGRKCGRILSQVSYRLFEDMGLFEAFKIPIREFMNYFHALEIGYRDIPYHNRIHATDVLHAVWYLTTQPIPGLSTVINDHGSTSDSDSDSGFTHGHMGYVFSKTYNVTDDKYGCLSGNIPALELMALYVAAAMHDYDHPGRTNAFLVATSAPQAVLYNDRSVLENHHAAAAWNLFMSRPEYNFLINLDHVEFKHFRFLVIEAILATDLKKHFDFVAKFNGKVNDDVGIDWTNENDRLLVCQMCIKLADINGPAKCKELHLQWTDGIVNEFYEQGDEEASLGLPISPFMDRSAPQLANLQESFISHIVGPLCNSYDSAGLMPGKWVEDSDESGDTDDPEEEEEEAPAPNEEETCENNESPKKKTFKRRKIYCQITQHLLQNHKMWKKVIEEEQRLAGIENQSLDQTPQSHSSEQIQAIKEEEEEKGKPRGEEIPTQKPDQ

SMILES	IC50 [1] [nM]	IC50 [2] [nM]	IC50 [3] [nM]
C/C(=N\O)c1ccc2nnc(Cc3c(F)cc4ncc(C5CCCCC5)cc4c3F)n2n1 [Example 26, (E)-1-(3-((3-Cyclohexyl-5,7-difluoroquinolin-6-yl)methyl)-[1,2,4]triazolo[4,3-b]pyridazin-6-yl)-ethanone oxime]	> 30000	15	93
C/C(=N\O)c1ccc2nnc([C@H](C)c3c(F)cc4ncc(-c5cnn(C)c5)cc4c3F)n2n1 [Example 21-(R), (R,E)-1-(3-(1-(5,7-difluoro-3-(1-methyl-1H-pyrazol-4-yl)quinolin-6-yl)ethyl)-[1,2,4]triazolo[4,3-b]pyridazin-6-yl)ethanone oxime]	7000	47	30
C/C(=N\O)c1ccc2nnc(Cc3c(F)cc4ncc(-c5cnn(C)c5)cc4c3F)n2n1 [Example 22, (E)-1-(3-((5,7-Difluoro-3-(1-methyl-1H-pyrazol-4-yl)quinolin-6-yl)methyl)-[1,2,4]triazolo[4,3-b]pyridazin-6-yl)ethanone oxime]	21000	1	3
C/C(=N\O)c1ccc2nnc(Cc3ccc4ncc(CN5CCOCC5)cc4c3)n2n1 [Example 15, (E)-1-(3-((3-(Morpholin-4-yl-methyl)quinolin-6-yl)methyl)-[1,2,4]triazolo[4,3-b]pyridazin-6-yl)ethanone oxime]	> 30000	7	13
C/C(=N\OCC1CC1)c1ccc2nnc([C@@H](C)c3ccc4ncc(-c5cnn(C)c5)cc4c3)n2n1 [Example 4-(S)]	1200	23	9
C/C(=N\O)c1ccc2nnc(Sc3ccc4ncc(N5CCN(C)CC5)cc4c3)n2n1 [Example 28, (E)-1-(3-((3-(4-Methylpiperazin-1-yl)quinolin-6-yl)sulfanyl)-[1,2,4]triazolo[4,3-b]pyridazin-6-yl)-ethanone oxime]	> 30000	5	2
C/C(=N\O)c1ccc2nnc(Cc3c(F)cc4ncc(N5CCOCC5)cc4c3F)n2n1 [Example 11, (E)-1-[3-(5,7-Difluoro-3-morpholin-4-yl-quinolin-6-ylmethyl)-[1,2,4]triazolo[4,3-b]pyridazin-6-yl]-ethanone oxime]	> 30000	1	6
C/C(=N\O)c1ccc2nnc([C@@H](C)c3c(F)cc4ncc(-c5cnn(C)c5)cc4c3F)n2n1 [Example 21-(S), (S,E)-1-(3-(1-(5,7-difluoro-3-(1-methyl-1H-pyrazol-4-yl)quinolin-6-yl)ethyl)-[1,2,4]triazolo[4,3-b]pyridazin-6-yl)ethanone oxime]	4000	3	7
CO/N=C(\C)c1ccc2nnc([C@@H](C)c3ccc4ncc(-c5cnn(C)c5)cc4c3)n2n1 [Example 3-(S)]	2000	5	1
C/C(=N\O)c1ccc2nnc(Cc3ccc4ncc(-c5cnn(C)c5)cc4c3)n2n1 [Example 12, (E)-1-(3-((3-(1-Methyl-1H-pyrazol-4-yl)quinolin-6-yl)methyl)-[1,2,4]triazolo[4,3-b]pyridazin-6-yl)ethanone oxime]	9000	0.5	1
C/C(=N\OCCO)c1ccc2nnc(Cc3c(F)cc4ncc(C5CCCCC5)cc4c3F)n2n1 [Example 25, (E)-1-(3-((3-Cyclohexyl-5,7-difluoroquinolin-6-yl)methyl)-[1,2,4]triazolo[4,3-b]pyridazin-6-yl)ethanone O-2-hydroxyethyl oxime]	3000	16	12
C/C(=N\O)c1ccc2nnc(Sc3ccc4ncc(NC5CCOCC5)cc4c3)n2n1 [Example 30, (E)-1-(3-((3-((Tetrahydro-2H-pyran-4-yl)amino)quinolin-6-yl)sulfanyl)-[1,2,4]triazolo[4,3-b]pyridazin-6-yl)-ethanone oxime]	17000	0.9	1

Source: patent US20130324526A1, “[1,2,4] TRIAZOLO [4,3-B] PYRIDAZINE COMPOUNDS AS INHIBITORS OF THE C-MET TYROSINE KINASE” (NOVARTIS AG, priority 2011, published 2013)
